Experiments:
K. pneumoniae = test: MIC; format: cell-based, Klebsiella pneumoniae
E. coli = test: SMART 2003 Europe, microdilution; format: cell-based, Escherichia coli; settings: 1106 isolates
Enterobacteriaceae = test: SMART 2003 Europe, microdilution; format: cell-based; settings: 1948 isolates
[1] = tested on: inducible Enterobacteriaceae; test: SMART 2003, intraabdominal isolates; format: cell-based
Klebsiella = test: SMART 2003 Europe, microdilution; format: cell-based, Klebsiella spp.; settings: 341 isolates
S. aureus = test: E-test susceptibility; format: cell-based, Staphylococcus aureus
Acinetobacter = test: Disk diffusion; format: cell-based; settings: 37 isolates selected as resistant to beta-lactams
[2] = tested on: Salmonella, other 49 serotypes; test: Disk diffusion, food isolates Spain; format: cell-based; settings: n = 115
[3] = tested on: Salmonella serotype Enteritidis; test: Disk diffusion, food isolates Spain; format: cell-based; settings: n = 96
[4] = tested on: Salmonella serotype Typhimurium; test: Disk diffusion, food isolates Spain; format: cell-based; settings: n = 53
S. pneumoniae [5] = test: PROTEKT Italy, NCCLS microdilution; format: cell-based, Streptococcus pneumoniae
MSSA = test: Agar dilution MIC; format: cell-based, Staphylococcus aureus; settings: Staphylococcus aureus, MSSA
[6] = tested on: glycopeptide intermediate Staphylococcus species (GISS); test: VITEK II, screening plate and E test, blood isolates; format: cell-based, coagulase-negative Staphylococci; settings: 73 GISS strains
S. pneumoniae [7] = test: Broth microdilution; format: cell-based, Streptococcus pneumoniae; settings: 275 isolates
MRSA = test: Agar dilution MIC; format: cell-based, Staphylococcus aureus; settings: Staphylococcus aureus, MRSA
[8] = tested on: viridans group streptococci (VGS); test: MIC; format: cell-based; settings: 107 strains
PRSP = test: Broth microdilution; format: cell-based, Streptococcus pneumoniae
S. pneumoniae [9] = test: Broth microdilution; format: cell-based, Streptococcus pneumoniae
H.influenzae = test: Broth microdilution; format: cell-based, Haemophilus influenzae; settings: for %Sus: NCCLS
ERSP = test: Broth microdilution; format: cell-based, Streptococcus pneumoniae
nontyphoidal Salmonella = test: Agar dilution, isolates from chickens 1998–2004; format: cell-based, Salmonella spp.
[10] = NCCLS breakpoints (Amox/Clav 2/1 mcg/mL)
[11] = PK breakpoint of 4/2 mcg/mL, Augmentin ES-600

With `C[C@@H](O)[C@H]1C(=O)N2C(C(=O)O)=C(S[C@@H]3CN[C@H](C(=O)Nc4cccc(C(=O)O)c4)C3)[C@H](C)[C@H]12` [ertapenem] the MIC (K. pneumoniae; Klebsiella pneumoniae) was over 16 µg/mL, the per cent susceptible (E. coli) was over 99% and the per cent susceptible (Enterobacteriaceae) was 99%. The “% susceptible” value ([1]; A/P (N = 200)) was 98%, the “% susceptible” value ([1]; EU (N = 354)) was 98% and the “% susceptible” value ([1]; LA (N=113)) was 91%. For the same molecule, the “% susceptible” value ([1]; NA (N = 163)) was 94% and the per cent susceptible (Klebsiella) was 99%.
In the case of `CC(=O)O[C@H]1C[C@@]2(C)[C@@H](C[C@@H](O)[C@H]3[C@@]4(C)CC[C@@H](O)[C@@H](C)[C@@H]4CC[C@@]32C)/C1=C(\CCC=C(C)C)C(=O)O` [fusidic acid], the Susceptibility (S. aureus; ICU, SRGA breakpoints, tigecycline tentative S ≤2 μg/ml) is reported as 91% and the Susceptibility (S. aureus; non-ICU) is reported as 93%.
`CCn1cc(C(=O)O)c(=O)c2cc(F)c(N3CCNC(C)C3)c(F)c21` (stereo not drawn) [lomefloxacin] showed a resistant isolates (Acinetobacter) of 100.0%.
`CC1(C)S[C@@H]2[C@H](NC(=O)[C@H](NC(=O)N3CCN(S(C)(=O)=O)C3=O)c3ccccc3)C(=O)N2[C@H]1C(=O)O` [mezlocillin] was tested, and the resistant isolates (Acinetobacter) was 100.0%.
In the case of `CO[C@@]1(NC(=O)C(C(=O)O)c2ccc(O)cc2)C(=O)N2C(C(=O)O)=C(CSc3nnnn3C)CO[C@@H]21` (stereo partly drawn) [moxalactam], the resistant isolates (Acinetobacter) is reported as 75.7%.
For `CCN[C@@H]1C[C@H](N)[C@@H](O[C@H]2OC(CN)=CC[C@H]2N)[C@H](O)[C@H]1O[C@H]1OC[C@](C)(O)[C@H](NC)[C@H]1O` [netilmicin], the resistant isolates (Acinetobacter) was 5.4%, the “resistance rate (NCCLS M100-S13)” value [2] was 0% and the “resistance rate (NCCLS M100-S13)” value [3] was 1%. For the same molecule, the “resistance rate (NCCLS M100-S13)” value [4] was 4%.
`CO[C@H]1/C=C/O[C@@]2(C)Oc3c(C)c(O)c4c(O)c(c(/C=N/N5CCN(C)CC5)c(O)c4c3C2=O)NC(=O)/C(C)=C\C=C\[C@H](C)[C@H](O)[C@@H](C)[C@@H](O)[C@@H](C)[C@H](OC(C)=O)[C@@H]1C` [rifampin] gave a susceptible (S. pneumoniae [5]; year 1: 2002) of 96.7%, a susceptible (S. pneumoniae [5]; year 2: 2003) of 98.9% and an MIC50 (MSSA) of under 7.5 ng/mL. The MIC90 (MSSA) was under 0.0375 µg/mL, the resistance rate [6] was 32,8% and the Susceptibility (S. pneumoniae [7]) was 99.3%. It also gave an MIC50 (MRSA) of under 32 µg/mL and an MIC90 (MRSA) of under 32 µg/mL.
In the case of `[H]/N=C(/N)N[C@H]1[C@H](O)[C@@H](O)[C@H](O[C@@H]2O[C@@H](C)[C@](O)(C=O)[C@H]2O[C@@H]2O[C@@H](CO)[C@H](O)[C@@H](O)[C@@H]2NC)[C@@H](N/C(N)=N\[H])[C@@H]1O` [streptomycin], the “resistance rate (NCCLS M100-S13)” value [2] is reported as 59%, the “resistance rate (NCCLS M100-S13)” value [3] is reported as 1% and the high-level resistance [8] is reported as 10.3%. The “resistance rate (NCCLS M100-S13)” value [4] was 53%.
For “Amoxicillin / Clavulanic acid [Amox/Clav]”, the MIC90 (PRSP) was 8 µg/mL, the “%Sus” value (PRSP; [10]) was 67.1% and the “%Sus” value (PRSP; [11]) was 83.5%. For the same molecule, the MIC90 (S. pneumoniae [9]) was 2 µg/mL, the “%Sus” value (S. pneumoniae [9]; [10]) was 92.3% and the “%Sus” value (S. pneumoniae [9]; [11]) was 96.5%. For the same molecule, the MIC90 (H.influenzae) was 2 µg/mL, the “%Sus” value (H.influenzae) was 99.2% and the MIC90 (ERSP) was 8 µg/mL. The “%Sus” value (ERSP; [10]) was 81.5% and the “%Sus” value (ERSP; [11]) was 88.6%.
In the case of Trimethoprim/sulfamethoxazole [TMP/SMX], the MIC90 (PRSP) is reported as over 8 µg/mL, the “%Sus” value (PRSP; [10]) is reported as 13.8% and the MIC90 (S. pneumoniae [9]) is reported as 8 µg/mL. The “%Sus” value (S. pneumoniae [9]; [10]) was 50.2%, the MIC90 (H.influenzae) was over 4 µg/mL and the “%Sus” value (H.influenzae) was 76.5%. The MIC90 (ERSP) was 8 µg/mL and the “%Sus” value (ERSP; [10]) was 24.5%.
colistin was tested, and the susceptibility category (K. pneumoniae; BSAC) was “susceptible”.
For trimethoprim/sulfadiazine [TS], the resistance (nontyphoidal Salmonella; Belgian collection (caecal samples; Belgium, France, Netherlands)) was 18% and the resistance (nontyphoidal Salmonella; Germany (carcass meat)) was 12%.

Reference: publication PMC7129073 (Clinical Microbiology and Infection, 2015)
